# Patent US12642270B2, “Substituted thiophene carboxamides, thiophene carboxylic acids and derivatives thereof” (Bayer Aktiengesellschaft, priority 2019, dated 2026)
# Experiment: Log P by HPLC on reversed phase columns (EEC directive 79/831 Annex V.A8)
# Type: physicochemical
# Conditions: method marked [a]
# Summary of the method: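 Reversed-phase HPLC per EEC 79/831 Annex V.A8, LC-UV with 10→95% acetonitrile linear gradient; eluent [a] 0.1% formic acid (acidic), [b] 0.001 M ammonium acetate (neutral), [c] 0.1% phosphoric acid (acidic). Calibrated with C3–C16 straight-chain alkan-2-ones, linear interpolation of retention times; multiple values joined by "+".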
row,Compound,LogP
1,COC(=O)C1(NC(=S)c2sc(C#N)c(Cl)c2C)CC1 [1.0290],3.04^[a]
2,Cc1c(C(=O)NC2(C(=O)O)CC2)sc(C#N)c1Cl [1.0291],1.79^[a]
3,O=C(NC(C(=O)O)C1CC1)c1sc(Br)c(Br)c1I (stereo not shown) [1.0292],2.97^[a]
4,O=C(NC(C(=O)O)C1CC1)c1sc(Br)c(Br)c1Cl (stereo not shown) [1.0293],2.94^[a]
5,COC(=O)CNC(=O)c1cc(Br)c(F)s1 [1.0295],2.01^[a]
6,COC(=O)CNC(=O)c1sc(F)c(Cl)c1C [1.0296],2.23^[a]
7,CCOC(=O)CNC(=O)c1sc(F)c(Cl)c1C [1.0297],2.59^[a]
8,CCOC(=O)C(NC(=O)c1sc(F)c(Cl)c1C)C(C)C (stereo not shown) [1.0299],3.87^[a]
9,CCOC(=O)C(CCSC)NC(=O)c1sc(F)c(Cl)c1C (stereo not shown) [1.0300],3.64^[a]
10,CCOC(=O)C(Cc1ccccc1)NC(=O)c1sc(F)c(Cl)c1C (stereo not shown) [1.0301],4.15^[a]
11,COC(=O)CNC(=O)c1sc(C#N)c(Cl)c1C [1.0302],2.03^[a]
12,CCOC(=O)CNC(=O)c1sc(C#N)c(Cl)c1C [1.0303],2.39^[a]
13,CCOC(=O)C(NC(=O)c1sc(C#N)c(Cl)c1C)C(C)C (stereo not shown) [1.0304],3.47^[a]
14,CCOC(=O)C(CCSC)NC(=O)c1sc(C#N)c(Cl)c1C (stereo not shown) [1.0305],3.28^[a]
15,CCOC(=O)C(Cc1ccccc1)NC(=O)c1sc(C#N)c(Cl)c1C (stereo not shown) [1.0306],3.77^[a]
16,COC(=O)CNC(=O)c1cc(F)c(Cl)s1 [1.0307],1.94^[a]
17,CCOC(=O)C(NC(=O)c1cc(F)c(Cl)s1)C(C)C (stereo not shown) [1.0309],3.44^[a]
18,CCOC(=O)C(CCSC)NC(=O)c1cc(F)c(Cl)s1 (stereo not shown) [1.0310],3.25^[a]
19,CCOC(=O)CNC(=O)c1cc(Br)c(F)s1 [1.0311],2.33^[a]
20,CCOC(=O)C(NC(=O)c1cc(Br)c(F)s1)C(C)C (stereo not shown) [1.0313],3.54^[a]

row,Compound,LogP
1,CCOC(=O)C(CCSC)NC(=O)c1cc(Br)c(F)s1 (stereo not shown) [1.0314],3.31^[a]
2,CCOC(=O)C(Cc1ccccc1)NC(=O)c1cc(Br)c(F)s1 (stereo not shown) [1.0315],3.77^[a]
3,COC(=O)CNC(=O)c1sc(F)c(Br)c1C [1.0316],2.31^[a]
4,CCOC(=O)CNC(=O)c1sc(F)c(Br)c1C [1.0317],2.67^[a]
5,CCOC(=O)C(NC(=O)c1sc(F)c(Br)c1C)C(C)C (stereo not shown) [1.0319],3.94^[a]
6,CCOC(=O)C(CCSC)NC(=O)c1sc(F)c(Br)c1C (stereo not shown) [1.0320],3.67^[a]
7,CCOC(=O)C(Cc1ccccc1)NC(=O)c1sc(F)c(Br)c1C (stereo not shown) [1.0321],4.23^[a]
8,COC(=O)C1(NC(=S)c2sc(Cl)c(Br)c2C)CC1 [1.0332],3.71^[a]
9,COC(=O)C1(NC(=S)c2sc(Cl)c(Cl)c2Br)CC1 [1.0334],4.06^[a]
10,COC(=O)C1(NC(=S)c2sc(C#N)c(Br)c2C)CC1 [1.0335],3.10^[a]
11,COC(=O)C1(NC(=S)c2cc(Br)c(C#N)s2)CC1 [1.0336],3.03^[a]
12,O=C(NC(CC(F)F)C(=O)O)c1sc(Cl)c(Cl)c1Br (stereo not shown) [1.0337],2.81^[a]
13,N#CCNC(=O)c1sc(Cl)c(Cl)c1F [1.0342],2.30^[a]
14,COC(=O)CNC(=O)c1sc(Cl)c(Cl)c1F [1.0343],2.43^[a]
15,CCOC(=O)CNC(=O)c1sc(Cl)c(Cl)c1F [1.0344],2.83^[a]
16,CCOC(=O)C(C)NC(=O)c1sc(Cl)c(Cl)c1F (stereo not shown) [1.0345],3.34^[a]
17,COC(=O)C(NC(=O)c1sc(Cl)c(Cl)c1F)C1CC1 (stereo not shown) [1.0346],3.36^[a]
18,CCOC(=O)C(NC(=O)c1sc(Cl)c(Cl)c1F)C(C)C (stereo not shown) [1.0348],4.37^[a]
19,COC(=O)C(CC(F)F)NC(=O)c1sc(Cl)c(Cl)c1F (stereo not shown) [1.0349],3.19^[a]
20,CCOC(=O)C(CC(C)C)NC(=O)c1sc(Cl)c(Cl)c1F (stereo not shown) [1.0350],4.63^[a]

row,Compound,LogP
1,CCOC(=O)C(CCSC)NC(=O)c1sc(Cl)c(Cl)c1F (stereo not shown) [1.0351],3.95^[a]
2,CCOC(=O)C(Cc1ccccc1)NC(=O)c1sc(Cl)c(Cl)c1F (stereo not shown) [1.0352],4.47^[a]
3,N#CCNC(=O)c1sc(Br)c(Br)c1C(F)(F)F [1.0365],2.61^[a]
4,CCOC(=O)C(Cc1ccccc1)NC(=O)c1sc(Br)c(Br)c1C(F)(F)F (stereo not shown) [1.0377],4.31^[a]
5,COC(=O)CNC(=O)c1cc(C#N)c(Cl)s1 [1.0378],1.75^[a]
6,CCOC(=O)CNC(=O)c1cc(C#N)c(Cl)s1 [1.0379],2.08^[a]
7,COC(=O)C(NC(=O)c1cc(C#N)c(Cl)s1)C1CC1 (stereo not shown) [1.0381],2.47^[a]
8,CCOC(=O)C(NC(=O)c1cc(C#N)c(Cl)s1)C(C)C (stereo not shown) [1.0382],3.20^[a]
9,CCOC(=O)C(CCSC)NC(=O)c1cc(C#N)c(Cl)s1 (stereo not shown) [1.0383],3.01^[a]
10,CCOC(=O)C(Cc1ccccc1)NC(=O)c1cc(C#N)c(Cl)s1 (stereo not shown) [1.0384],3.47^[a]
11,COC(=O)CNC(=O)c1cc(Cl)c(C#N)s1 [1.0385],1.77^[a]
12,CCOC(=O)CNC(=O)c1cc(Cl)c(C#N)s1 [1.0386],2.10^[a]
13,COC(=O)C(NC(=O)c1cc(Cl)c(C#N)s1)C1CC1 (stereo not shown) [1.0388],2.50^[a]
14,CCOC(=O)C(NC(=O)c1cc(Cl)c(C#N)s1)C(C)C (stereo not shown) [1.0389],3.22^[a]
15,CCOC(=O)C(CCSC)NC(=O)c1cc(Cl)c(C#N)s1 (stereo not shown) [1.0390],3.03^[a]
16,CCOC(=O)C(Cc1ccccc1)NC(=O)c1cc(Cl)c(C#N)s1 (stereo not shown) [1.0391],3.48^[a]
17,COC(=O)CNC(=O)c1sc(Cl)c(C#N)c1Cl [1.0392],2.16^[a]
18,CCOC(=O)CNC(=O)c1sc(Cl)c(C#N)c1Cl [1.0393],2.54^[a]

# More lines, now with the values ahead:
row,LogP,Compound
1,2.64^[a],O=C(NC(C(=O)O)C1CC1)c1sc(Br)c(Br)c1F (stereo not shown) [1.0294]
2,2.77^[a],CCOC(=O)C1(NC(=O)c2sc(F)c(Cl)c2C)CC1 [1.0298]
3,2.49^[a],CCOC(=O)C1(NC(=O)c2cc(F)c(Cl)s2)CC1 [1.0308]
4,2.57^[a],CCOC(=O)C1(NC(=O)c2cc(Br)c(F)s2)CC1 [1.0312]
5,2.83^[a],CCOC(=O)C1(NC(=O)c2sc(F)c(Br)c2C)CC1 [1.0318]
6,4.51^[a],CCOC(=O)C1(NC(=S)c2sc(Cl)c(Cl)c2Br)CC1 [1.0323]
7,2.41^[a],O=C(NC1(C(=O)O)CC1)c1sc(Cl)c(Br)c1Cl [1.0324]
8,4.55^[a],CCOC(=O)C1(NC(=S)c2sc(Cl)c(Br)c2Cl)CC1 [1.0325]
9,3.37^[a],CCOC(=O)CN(OC)C(=O)c1sc(Br)c(Br)c1F [1.0327]
10,3.91^[a],COC(=O)C1(NC(=S)c2sc(Br)c(Br)c2F)CC1 [1.0328]
11,2.95^[a],O=C(O)C1(NC(=S)c2sc(Br)c(Br)c2F)CC1 [1.0329]
12,2.36^[a],COC(=O)[C@H](CCC(=O)O)NC(=O)c1sc(Br)c(Br)c1F [1.0330]
13,4.74^[a],CCOC(=O)C1(NC(=S)c2sc(Br)c(Br)c2F)CCC1 [1.0331]
14,4.11^[a],COC(=O)C1(NC(=S)c2sc(Br)c(Br)c2Cl)CC1 [1.0333]
15,3.20^[a],CCOC(=O)C1(NC(=O)c2sc(Br)c(Br)c2C(F)F)CC1 [1.0341]
16,3.70^[a],CCOC(=O)C1(NC(=O)c2sc(Cl)c(Cl)c2F)CCC1 [1.0347]
17,2.54^[a],N#CCNC(=O)c1sc(Br)c(Br)c1C(F)F [1.0353]
18,2.66^[a],COC(=O)CNC(=O)c1sc(Br)c(Br)c1C(F)F [1.0354]
19,3.01^[a],CCOC(=O)CNC(=O)c1sc(Br)c(Br)c1C(F)F [1.0355]
20,2.86^[a],COC(=O)C1(NC(=O)c2sc(Br)c(Br)c2C(F)F)CC1 [1.0356]
21,3.35^[a],CCOC(=O)C(C)NC(=O)c1sc(Br)c(Br)c1C(F)F (stereo not shown) [1.0357]

row,LogP,Compound
1,3.37^[a],COC(=O)C(NC(=O)c1sc(Br)c(Br)c1C(F)F)C1CC1 (stereo not shown) [1.0358]
2,3.67^[a],CCOC(=O)C1(NC(=O)c2sc(Br)c(Br)c2C(F)F)CCC1 [1.0359]
3,4.16^[a],CCOC(=O)C(NC(=O)c1sc(Br)c(Br)c1C(F)F)C(C)C (stereo not shown) [1.0360]
4,3.28^[a],COC(=O)C(CC(F)F)NC(=O)c1sc(Br)c(Br)c1C(F)F (stereo not shown) [1.0361]
5,4.45^[a],CCOC(=O)C(CC(C)C)NC(=O)c1sc(Br)c(Br)c1C(F)F (stereo not shown) [1.0362]
6,3.89^[a],CCOC(=O)C(CCSC)NC(=O)c1sc(Br)c(Br)c1C(F)F (stereo not shown) [1.0363]
7,4.34^[a],CCOC(=O)C(Cc1ccccc1)NC(=O)c1sc(Br)c(Br)c1C(F)F (stereo not shown) [1.0364]
8,2.71^[a],COC(=O)CNC(=O)c1sc(Br)c(Br)c1C(F)(F)F [1.0366]
9,3.05^[a],CCOC(=O)CNC(=O)c1sc(Br)c(Br)c1C(F)(F)F [1.0367]
10,2.93^[a],COC(=O)C1(NC(=O)c2sc(Br)c(Br)c2C(F)(F)F)CC1 [1.0368]
11,3.35^[a],CCOC(=O)C(C)NC(=O)c1sc(Br)c(Br)c1C(F)(F)F (stereo not shown) [1.0369]
12,3.26^[a],CCOC(=O)C1(NC(=O)c2sc(Br)c(Br)c2C(F)(F)F)CC1 [1.0370]
13,3.37^[a],COC(=O)C(NC(=O)c1sc(Br)c(Br)c1C(F)(F)F)C1CC1 (stereo not shown) [1.0371]
14,3.67^[a],CCOC(=O)C1(NC(=O)c2sc(Br)c(Br)c2C(F)(F)F)CCC1 [1.0372]
15,4.09^[a],CCOC(=O)C(NC(=O)c1sc(Br)c(Br)c1C(F)(F)F)C(C)C (stereo not shown) [1.0373]
16,3.31^[a],COC(=O)C(CC(F)F)NC(=O)c1sc(Br)c(Br)c1C(F)(F)F (stereo not shown) [1.0374]
17,4.38^[a],CCOC(=O)C(CC(C)C)NC(=O)c1sc(Br)c(Br)c1C(F)(F)F (stereo not shown) [1.0375]
18,3.87^[a],CCOC(=O)C(CCSC)NC(=O)c1sc(Br)c(Br)c1C(F)(F)F (stereo not shown) [1.0376]
19,2.28^[a],CCOC(=O)C1(NC(=O)c2cc(C#N)c(Cl)s2)CC1 [1.0380]
20,2.32^[a],CCOC(=O)C1(NC(=O)c2cc(Cl)c(C#N)s2)CC1 [1.0387]
21,2.69^[a],CCOC(=O)C1(NC(=O)c2sc(Cl)c(C#N)c2Cl)CC1 [1.0394]
